From article PMC5866837, “Towards a generic physiologically based kinetic model to predict in vivo uterotrophic responses in rats by reverse dosimetry of in vitro estrogenicity data” (Archives of Toxicology, 2017)
Read-outs that look alike come from different tables or passages of the source. Marks after values point to notes of the source that are not given here.

How the values were obtained:
[1] = parameters: method as in Hansch et al. [1995]; settings: ref Hansch et al. [1995]; cited from earlier work
[2] = test system: uterotrophic growth in rats; assay: PBK modelling-based reverse dosimetry of YES assay data and BMD analysis; parameters: species or system rat
Source text: For each in vitro concentration–response dataset from the three assays, the PBK modelling-based reverse dosimetry approach was used to predict the dose levels that are required to reach concentrations in blood that were applied in these assays. As it is assumed that the fraction unbound (f ub) of the parent compound induces the toxicity, the possible difference in the f ub in the in vitro assay medium and in rat serum was corrected prior to applying reverse dosimetry. The f ub of E2 and BPA were determined for in vitro assay media and rat serum as described below. PBK modelling-based reverse dosimetry. […] Consequently, for reverse dosimetry, the in vitro unbound concentration (C ub, in vitro) was set equal to the unbound C max in blood (C ub, in vivo) to determine the dose that is required to cause an in vivo estrogenic effect. The C ub, in vitro was estimated based on the equation: C ub, in vitro = C in vitro × f ub, in vitro, where C in vitro is the nominal concentration applied in the in vitro assay and f ub, in vitro is the fraction unbound of the chemical in the in vitro assay medium as determined using the RED assay. The C ub, in vivo was estimated based on the equation: C ub, in vivo = C in vivo × f ub, in vivo, where C in vivo is the nominal blood concentration in rat and fub, in vivo is the fub in rat serum. Assuming that for the prediction of in vivo toxicity, the C ub, in vitro is the same as C ub, in vivo, the nominal blood concentration in rat can be described by the following equation: C in vivo = C ub, in vivo/f ub, in vivo = C ub, in vitro/f ub, in vivo = (C in vitro × f ub, in vitro)/fub, in vivo. By calculating with the PBK model which dose is required to reach a C in vivo, an in vitro concentration can be translated into an in vivo dose. Performing this exercise for all the concentrations applied in the in vitro assays, the in vitro concentration–response curves were translated into predicted in vivo dose–response curves. […]

[3] = Substrate depletion approach, in vitro clearance (CLint) with rat liver S9; assay type: in vitro ADME; settings: for microsomal CLint at 3 µM / CLint in liver S9 at 3 µM: Sprague-Dawley, rat, liver S9 fraction; for CLint in liver S9 at 3 µM: 3 µM substrate
Source text: To develop a generic model, a fast and efficient approach needs to be applied to determine the hepatic clearance. To this end, a substrate depletion approach was used, as described by others (Jones and Houston [2004]; Obach [1999]; Obach and Reed-Hagen [2002]). Metabolic breakdown of the parent compound, referred to as “substrate depletion” is used to measure in vitro CLint of the parent compound, where the consumption rate of the parent compound using hepatic microsomes, hepatic S9 fractions or hepatocytes, is measured over a range of incubation times under linear conditions with respect to protein concentration and substrate concentration (Jones and Houston [2004]).
The CLint of the parent compounds via phase I and phase II metabolism was determined in incubations with liver S9 fraction from both male and female Sprague–Dawley rats, in the presence of all relevant co-factors NADPH, UDPGA, PAPS and acetyl CoA. To investigate whether the in vitro CLint value derived from incubations for individual reactions (with individual co-factors) is similar as the CLint value derived from incubations with all the co-factors together in one mixture, two approaches were applied. In the first approach, the parent compound was incubated with individual co-factors in Eppendorf tubes applying a final volume of 200 µL containing either 3 mM NADPH, 5 mM UDPGA (also including 5 mM MgCl2 and 0.025 mg/ml alamethicin), 0.2 mM PAPS, or 0.5 mM acetyl CoA, with 0.5 mg/ml liver S9 in 0.1 M potassium phosphate (pH 7.4) buffer. After pre-incubating the mixtures at 37 °C for 1 min, the reactions were started by adding 3 µM (final concentration) of the parent compound from a 100 times concentrated stock solution dissolved in DMSO. In the second approach, it was tested whether the methodology could be simplified by adding all the co-factors to one incubation mixture and the parent compound after pre-incubation. For both approaches, 14 time points were selected at which the reaction was terminated, being 0, 1, 2, 3, 4, 5, 7, 8.5, 10, 15, 20, 25, 30 and 45 min. To terminate the reaction 100 µL cold acetonitrile (ACN) was added to the mixture and the Eppendorf tubes were put on ice for 30 min. Subsequently, tubes were centrifuged at 15,000 rpm for 5 min (CT 15RE, Hitachi Koki Co., Ltd) and the supernatant was collected for UPLC analysis. For each incubation time point, a corresponding control was included, which was an incubation performed in the absence of co-factor(s). All incubations were performed in triplicate in three independent studies.
The concentration of the parent compound was quantified for all the incubations using UPLC analysis performed as described below. The ratio of remaining parent compound concentration between incubation sample (C compound) and the control without co-factor (C control) was calculated for each incubation time. Subsequently, the depletion curve of the parent compound [ln(C compound/C control)] against time was derived as described before (Jones and Houston [2004]; Obach [1999]; Obach and Reed-Hagen [2002]). The slope of the linear part of the depletion curve represents the elimination rate constant (k, min^−1) for elimination of the parent compound. Using the following equation, the in vitro clearance (CLint, in vitro) of the parent compound can be estimated: CLint, in vitro (µL/min/mg protein) = V (µL)/P (mg) × k (min^−1) (Obach [1999]; Sjögren et al. [2009]). V represents volume (µL) of incubation mixture and P is the protein amount (mg) in the mixture. The in vitro CLint value derived from incubations with all co-factors together in one mixture (approach 2) was compared with the sum of the CLint values derived from incubations with a single co-factor (approach 1). The in vitro CLint of the parent compound was scaled to a whole liver, assuming that the S9 protein concentration in the rat liver is 87 g/kg liver (Chiu and Ginsberg [2011]).
For BPA, the analytical method was slightly changed based on the method for E2. […]

[4] = female, pH 7.4, female Sprague–Dawley rat liver S9, all co-factors (NADPH, UDPGA, PAPS, acetyl CoA) in one mixture, read-out: Female CLint
[5] = male, pH 7.4, male Sprague–Dawley rat liver S9, all co-factors (NADPH, UDPGA, PAPS, acetyl CoA) in one mixture, read-out: Male CLint
[6] = male, pH 7.4, male Sprague–Dawley rat liver S9, individual co-factor NADPH
[7] = male, pH 7.4, male Sprague–Dawley rat liver S9, individual co-factor PAPS
[8] = male, pH 7.4, male Sprague–Dawley rat liver S9, individual co-factor UDPGA
[9] = male, pH 7.4, male Sprague–Dawley rat liver S9, read-out: CLint, SUM of incubations with individual co-factors

Predicted BMDL10 lower than that of BPA ([2]; YES assay-based prediction) | Female CLint ([3]; female Sprague–Dawley rat liver S9, all co-factors (NADPH, UDPGA, PAPS, acetyl CoA) in one mixture) [µl/min/mg protein] | Structure (SMILES) | Log P ow [1] | Predicted BMDL10 fold higher than BMDL10 of the in vivo data ([2]; in vivo data from Tinwell and Ashby (2004)) [fold] | Predicted BMDL10 fold lower than BMDL10 of the in vivo data ([2]; in vivo data of Kanno et al. (2003)) [fold] | CLint fold higher for female than for male rat liver S9 ([3]; all co-factors in one mixture) [fold] | microsomal CLint at 3 µM [3, 4] [µL/min/mg] | microsomal CLint at 3 µM [3, 5] [µL/min/mg] | CLint in liver S9 at 3 µM [3, 6] [µL/min/mg] | CLint in liver S9 at 3 µM [3, 7] [µL/min/mg] | CLint in liver S9 at 3 µM [3, 8] [µL/min/mg] | microsomal CLint at 3 µM [3, 9] [µL/min/mg]
– | – | CC(C)(c1ccc(O)cc1)c1ccc(O)cc1 [BPA, bisphenol A] | 3.3^a | 4.7 | 13.4 | 1.1 | 432 ± 12.5 | 392 ± 6.7 | 60 ± 4.8 | 3.4 ± 2.1 | 340 ± 7.8 | 403 ± 9.4
4 orders of magnitude | 65.5 ± 12.3 | C[C@]12CC[C@@H]3c4ccc(O)cc4CC[C@H]3[C@@H]1CC[C@@H]2O [E2, 17β-estradiol] | 4.0^a | – | – | – | 65.5 | 175 ± 13.3 | 155 ± 26.7 | 4.4 ± 1.6 | 23.3 ± 0.9 | 182 ± 26.8
